One data set has as its target T1, human MCH-1 receptor (Homo sapiens, UniProt Q99705).
T1 construct: expressed in transfected cells
Description: Ca2+ mobilization experiment for the MCH-1 receptor (FLIPR), inhibition of MCH-induced Ca2+ response. The data set is classed as cell-based. The note with it: CHO cells stably expressing human MCH-1 receptor, submaximal MCH concentration, read-out: MCH-1 pIC50 (converted). How it is done: The interaction of the compounds of Formula (I) with MCH-1 receptors was assessed in in vitro transient calcium (Ca^2+) mobilization assays in the fluorimetric imaging plate reader (FLIPR) format (Sullivan et al. 1999, Methods Mol Biol 114:125-133). In general, the natural agonist (MCH) is incubated with cells expressing the MCH-1 receptor, which elicits a concentration-dependent transient mobilization of Ca^2+ from internal stores. The interaction of the test compounds with the receptor is assessed in competition experiments. Various concentrations of the test compound are added to the incubation mixture containing the receptor-expressing cells and a submaximal concentration of MCH. The test compound in proportion to its antagonist potency and its concentration inhibits MCH-induced Ca^2+ mobilization.
Cell culture and membrane preparation. Chinese Hamster ovary cells (CHO) stably expressing the human MCH-1 receptor are grown in a 1:1 mixture of Dulbecco's Modified Eagles Medium (DMEM) and HAM's F12 medium including Glutamax™ (Invitrogen), supplemented with 10% heat-inactivated fetal bovine serum and 400 μg/ml geneticin.
Ca^2+ mobilization experiment for the MCH-1 receptor. Twenty-four hours before the experiment, MCH-1 receptor-expressing CHO cells are seeded in 20 μl (5,000 cells per well) into 384-well black wall, clear bottom microtiter plates (Costar). On the day of the experiment, 20 μl per well calcium assay kit containing 10 mM probenicide (Molecular Devices) is added. Cells are loaded for 90 min at 37° C. and 5% CO2 in a cell culture incubator. After loading, 20 μl of serial dilutions of the test compound are added and cells are further incubated for 20 min at room temperature in the dark. After 20 min, 20 μl of a submaximal MCH concentration is added and changes in intracellular calcium are recorded directly in a FLIPR III apparatus (Molecular devices).
Data analysis and results. Data from assays in the presence of compound were calculated as a percentage of total Ca^2+-responses measured in the absence of test compound. Inhibition curves, plotting percent of total Ca^2+-responses versus the log value of the concentration of the test compound, were automatically generated, and sigmoidal inhibition curves were fitted using non-linear regression. The pIC50 values of test compounds were derived from individual curves.
A general note: Calcium flux is commonly read through the fluorescence of an indicator in the cells.

In a further data set the target is T2, HERG potassium channel (Homo sapiens, UniProt Q12809).
T2 construct: expressed in transfected cells
Briefly: hERG-mediated K+ tail current, automated whole-cell patch clamp (PatchXpress 7000A) in HEK293 cells stably transfected with HERG. The note with it: measured after 5 minutes of drug application. The data set is classed as cell-based. From the text: To determine the extent of block the residual current was compared with vehicle pre-treatment.
(In general: The hERG channel carries a current that helps repolarise heart muscle cells.)

As a reminder, the melting point is the temperature of the solid-liquid transition.

T1 sequence (Q99705 whole entry): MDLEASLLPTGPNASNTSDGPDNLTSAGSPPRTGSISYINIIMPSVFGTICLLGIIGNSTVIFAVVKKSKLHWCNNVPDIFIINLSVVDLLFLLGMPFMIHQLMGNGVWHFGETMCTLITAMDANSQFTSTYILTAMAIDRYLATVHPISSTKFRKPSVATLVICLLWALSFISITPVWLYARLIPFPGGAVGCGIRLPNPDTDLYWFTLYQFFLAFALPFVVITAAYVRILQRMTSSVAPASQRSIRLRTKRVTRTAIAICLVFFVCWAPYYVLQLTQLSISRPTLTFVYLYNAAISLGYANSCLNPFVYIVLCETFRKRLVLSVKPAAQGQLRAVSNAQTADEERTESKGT
T2 sequence (Q12809 whole entry): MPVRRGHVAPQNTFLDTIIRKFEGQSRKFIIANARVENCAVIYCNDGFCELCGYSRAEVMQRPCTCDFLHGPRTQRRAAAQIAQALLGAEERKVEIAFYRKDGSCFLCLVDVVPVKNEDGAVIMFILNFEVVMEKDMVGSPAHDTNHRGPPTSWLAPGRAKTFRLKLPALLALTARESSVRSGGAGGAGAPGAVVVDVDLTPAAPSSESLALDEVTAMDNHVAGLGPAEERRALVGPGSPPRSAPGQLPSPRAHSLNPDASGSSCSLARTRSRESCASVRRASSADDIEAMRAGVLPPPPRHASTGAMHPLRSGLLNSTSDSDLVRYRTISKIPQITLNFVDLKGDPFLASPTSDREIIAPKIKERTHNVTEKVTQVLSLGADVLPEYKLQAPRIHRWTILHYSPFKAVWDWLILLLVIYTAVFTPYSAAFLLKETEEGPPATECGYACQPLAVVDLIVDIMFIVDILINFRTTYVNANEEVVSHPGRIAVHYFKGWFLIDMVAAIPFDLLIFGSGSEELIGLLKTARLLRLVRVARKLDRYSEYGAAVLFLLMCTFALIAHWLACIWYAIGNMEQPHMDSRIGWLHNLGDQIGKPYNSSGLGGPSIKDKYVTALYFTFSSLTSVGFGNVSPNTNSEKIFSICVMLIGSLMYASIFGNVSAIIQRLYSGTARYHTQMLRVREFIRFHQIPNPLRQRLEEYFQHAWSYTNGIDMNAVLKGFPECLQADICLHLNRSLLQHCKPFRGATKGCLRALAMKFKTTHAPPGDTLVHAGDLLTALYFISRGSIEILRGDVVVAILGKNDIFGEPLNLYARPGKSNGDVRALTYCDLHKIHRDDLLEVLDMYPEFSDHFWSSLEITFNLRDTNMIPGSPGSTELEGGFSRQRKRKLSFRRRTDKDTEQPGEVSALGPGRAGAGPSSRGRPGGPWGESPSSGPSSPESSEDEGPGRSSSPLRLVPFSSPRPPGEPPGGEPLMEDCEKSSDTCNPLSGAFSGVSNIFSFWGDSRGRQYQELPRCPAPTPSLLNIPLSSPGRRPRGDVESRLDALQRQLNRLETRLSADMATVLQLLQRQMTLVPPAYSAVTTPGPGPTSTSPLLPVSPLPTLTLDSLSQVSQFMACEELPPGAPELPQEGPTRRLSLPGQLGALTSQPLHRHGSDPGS

As to `O=c1cc(OCc2ccc(F)cc2)ccn1-c1ccc(N2CC3(CCNCC3)C2)cc1` [Compound 3-2], the IC50 on human MCH-1 receptor was 39.8 nM.

For `COc1cc(-n2ccc(OCc3ccccc3)cc2=O)ccc1N1CC2(CCNCC2)C1` [Compound 2-2], on human MCH-1 receptor, the IC50 was 39.8 nM.

On to `O=c1cc(/C=C/c2ccccc2)ccn1-c1ccc(N2CC3(CCNCC3)C2)cc1` [Compound 3-1], for which the IC50 at human MCH-1 receptor is 63.1 nM.

Molecule `O=c1cc(COc2ccccc2)ccn1-c1ccc(N2CC3(CCNCC3)C2)cc1` [Compound 3-3] returned a melting point of 292.7 °C. Further, the IC50 on human MCH-1 receptor was 501 nM.

For `O=c1cc(OCc2ccccc2)ccn1-c1ccc(N2CCC3(CC2)CNCCO3)cc1` [Compound 1-3], the IC50 on human MCH-1 receptor was 126 nM.

`O=c1cc(OCc2ccccc2)ccn1-c1ccc(N2CCC3(CCNCC3)C2)cc1` [Compound 1-7] yielded a melting point of 236.3 °C. For the same molecule, the “hERG-reduction (%) at 3 μM” value at HERG potassium channel is −1.8%. Further, the IC50 at human MCH-1 receptor was 63.1 nM.

`O=C1N(c2ccc(-n3ccc(OCc4ccccc4)cc3=O)cc2)CC12CCNCC2` [Compound 1-11]: on human MCH-1 receptor, the IC50 is 50.1 nM.

Consider `O=c1cc(OCc2ccccc2)ccn1-c1ccc(N2CCCC3(CCNC3)C2)cc1` (stereo not drawn) [Compound 1-4], for which, at human MCH-1 receptor, the IC50 was 31.6 nM.

For the molecule `O=c1cc(OCc2ccccc2)ccn1-c1ccc(N2CCC3(CCCNC3)C2)cc1` (stereo not drawn) [Compound 1-6], the IC50 on human MCH-1 receptor is 25.1 nM.

With `CN1CCC2(CC1)CN(c1ccc(-n3ccc(OCc4ccccc4)cc3=O)cc1Cl)C2` [Compound 2-4], the IC50 at human MCH-1 receptor is 31.6 nM.

In the case of `O=c1cc(OCc2ccccc2)ccn1-c1ccc(N2CCC3(CC2)CNC3)cc1` [Compound 1-1], the IC50 at human MCH-1 receptor was 79.4 nM.

In the case of `O=C1CC2(CCNCC2)CN1c1ccc(-n2ccc(OCc3ccccc3)cc2=O)cc1` [Compound 1-10], the IC50 at human MCH-1 receptor is 79.4 nM.

Molecule `O=c1cc(OCc2ccccc2)ccn1-c1ccc(N2CC3(CCNCC3)C2)cc1` [Compound 1-12] displayed a melting point of 231 °C. Also, the “hERG-reduction (%) at 3 μM” value at HERG potassium channel is recorded as 0.7%. The IC50 at human MCH-1 receptor was 25.1 nM.

Regarding `CN1CCC2(CC1)CCN(c1ccc(-n3ccc(OCc4ccccc4)cc3=O)cc1)C2` [Compound 1-14], the IC50 on human MCH-1 receptor was 31.6 nM.

As for `O=c1cc(OCc2ccccc2)ccn1-c1ccc(N2CC3(CCNCC3)C2)c(Cl)c1` [Compound 2-3], the IC50 on human MCH-1 receptor was 25.1 nM.

For the molecule `CCN1CCC2(CC1)CN(c1ccc(-n3ccc(OCc4ccccc4)cc3=O)cc1)C2` [Compound 1-8], on human MCH-1 receptor, the IC50 was 63.1 nM.

In turn, `O=c1cc(OCc2ccccc2)ccn1-c1ccc(N2CC3(CCN(C4CC4)CC3)C2)cc1` [Compound 1-9] gave a melting point of 276.5 °C. Moreover, on human MCH-1 receptor, the IC50 is 100 nM.

Regarding `Cc1cc(-n2ccc(OCc3ccccc3)cc2=O)ccc1N1CC2(CCNCC2)C1` [Compound 2-1], the melting point worked out at 164.6 °C. Besides, the “hERG-reduction (%) at 3 μM” value on HERG potassium channel turned out to be 15.6%. In addition, the IC50 at human MCH-1 receptor was 25.1 nM.

In turn, `O=c1cc(OCc2ccccc2)ccn1-c1ccc(N2CCC3(CCCNC3)CC2)cc1` [Compound 1-2] yielded a melting point of 141.5 °C. The IC50 at human MCH-1 receptor is 50.1 nM.

Take `O=c1cc(OCc2ccccc2)ccn1-c1ccc(N2CC3(CCNCC3)C2)cc1` [Compound 1-5]: the melting point came to 203.2 °C. At human MCH-1 receptor, the IC50 is 31.6 nM.

The values above are taken from patent publication US8158643B2, “Substituted diaza-spiro-pyridinone derivatives for use in MCH-1 mediated diseases” (Janssen Pharmaceutica N.V., priority 2006, dated 2012).
